These results are taken from patent US20240043427A1 (Gilead Sciences, Inc., priority 2020, published 2024).

For experiment [1], the target named is T1, CD73 (Homo sapiens (Human), UniProt P21589). The experiment is classed as biochemical. The conditions noted are these: 1 mM NaH2PO4 in enzyme buffer, CD73 0.3 nM, AMP 15 uM.
Experiment [2] concerns the target T1, CD73. The experiment in a line: MDA-MB-231 Cell Based CD73 Activity Assay (DMEM). The conditions noted are these: MDA-MB-231-GFP cells, DMEM medium with 10% human plasma, 200 uM AMP.

T1 sequence (P21589 27-574): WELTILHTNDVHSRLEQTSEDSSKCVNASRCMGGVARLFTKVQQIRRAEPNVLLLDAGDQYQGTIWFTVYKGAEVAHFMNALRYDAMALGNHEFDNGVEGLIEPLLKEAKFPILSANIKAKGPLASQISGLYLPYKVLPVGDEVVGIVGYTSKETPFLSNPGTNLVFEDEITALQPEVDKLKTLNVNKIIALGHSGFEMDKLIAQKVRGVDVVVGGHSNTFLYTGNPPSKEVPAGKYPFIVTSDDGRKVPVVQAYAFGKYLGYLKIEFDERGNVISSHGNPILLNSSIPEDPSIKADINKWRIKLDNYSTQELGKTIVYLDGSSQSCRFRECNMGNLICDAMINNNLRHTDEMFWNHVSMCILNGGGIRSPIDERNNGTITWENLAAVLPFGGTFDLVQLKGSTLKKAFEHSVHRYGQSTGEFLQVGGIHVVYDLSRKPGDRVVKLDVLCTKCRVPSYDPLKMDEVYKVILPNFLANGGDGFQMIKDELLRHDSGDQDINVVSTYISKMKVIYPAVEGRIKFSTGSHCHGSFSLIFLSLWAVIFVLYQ

The IC50 is the point on the concentration scale where inhibition reaches its midpoint. Read a low IC50 as inhibition by little substance. Broadly, the EC50 is the concentration needed to bring the measured effect to its halfway point. Lower therefore signals greater potency. At CD73 [1], `O=c1[nH]cc(-c2cc([C@H]3C[C@@H]3c3ccc4ccc(=O)n(CC(F)(F)F)c4c3)c3nccn3n2)c(=O)[nH]1` (racemic) [Example 598, 5-(8-((1S,2S)-2-(2-oxo-1-(2,2,2-trifluoroethyl)-1,2-dihydroquinolin-7-yl)cyclopropyl)imidazo[1,2-b]pyridazin-6-yl)pyrimidine-2,4(1H,3H)-dione] displayed a concentration for half-maximal inhibition (IC50) of 1.11 nM. On CD73 [2], this compound had an EC50 of 0.11 nM.

Take `O=c1[nH]cc(-c2cc([C@H]3C[C@@H]3c3ccc(OC(F)F)cn3)c3nccn3n2)c(=O)[nH]1` (racemic) [Example 136, 5-(8-((1S,2S)-2-(5-(difluoromethoxy)pyridin-2-yl)cyclopropyl)imidazo[1,2-b]pyridazin-6-yl)pyrimidine-2,4(1H,3H)-dione and 5-(8-((1R,2R)-2-(5-(difluoromethoxy)pyridin-2-yl)cyclopropyl)imidazo[1,2-b]pyridazin-6-yl)pyrimidine-2,4(1H,3H)-dione]: half-maximal inhibition against CD73 [1] (IC50) required 3.11 nM. In addition, the 50% effective concentration (EC50) on CD73 [2] stood at 6.37 nM.

`CC(C)n1ncc2ccc([C@H]3C[C@@H]3c3cc(-c4c[nH]c(=O)[nH]c4=O)nn4ccnc34)cc21` [Example 120, 5-(8-((1S,2S)-2-(1-isopropyl-1H-indazol-6-yl)cyclopropyl)imidazo[1,2-b]pyridazin-6-yl)pyrimidine-2,4(1H,3H)-dione] came in with an IC50 against CD73 [1] of 0.85 nM. Also, the EC50 on CD73 [2] came to 0.85 nM.

The compound `CC(C)(C)OC(=O)N1CC2(C1)CN(c1cc(-c3c[nH]c(=O)[nH]c3=O)nn3ccnc13)CC2(F)F` [Example 488, tert-butyl 6-(6-(2,4-dioxo-1,2,3,4-tetrahydropyrimidin-5-yl)imidazo[1,2-b]pyridazin-8-yl)-8,8-difluoro-2,6-diazaspiro[3.4]octane-2-carboxylate] displayed an IC50 on CD73 [1] of 16.9 nM. The compound further gave an EC50 at CD73 [2] of 13 nM.

`O=c1[nH]cc(-c2cc([C@H]3C[C@@H]3c3cnc4cnn(CC(F)(F)F)c4c3)c3ncc(F)n3n2)c(=O)[nH]1` [Example 628, 5-(3-fluoro-8-((1S,2S)-2-(1-(2,2,2-trifluoroethyl)-1H-pyrazolo[4,3-b]pyridin-6-yl)cyclopropyl)imidazo[1,2-b]pyridazin-6-yl)pyrimidine-2,4(1H,3H)-dione] gave an IC50 against CD73 [1] of 0.73 nM. The same compound came in with a 50% effective concentration (EC50) on CD73 [2] of 0.23 nM.

At CD73 [1], `O=c1[nH]cc(-c2cc(NCC(F)(F)c3ccccc3)c3nccn3n2)c(=O)[nH]1` [Example 498, 5-(8-((2,2-difluoro-2-phenylethyl)amino)imidazo[1,2-b]pyridazin-6-yl)pyrimidine-2,4(1H,3H)-dione] registered an IC50 of 50.7 nM. The midpoint of the response on CD73 [2], the EC50, lay at 260 nM.

Turning to `O=c1[nH]cc(-c2cc(N3C[C@H]4CC[C@H]4C3)c3nccn3n2)c(=O)[nH]1` [Example 476, 5-(8-(cis-3-azabicyclo[3.2.0]heptan-3-yl)imidazo[1,2-b]pyridazin-6-yl)pyrimidine-2,4(1H,3H)-dione], it took 38.8 nM to reach half-maximal inhibition against CD73 [1] (IC50). The compound also yielded an EC50 at CD73 [2] of 32.2 nM.

With `O=C(NCC(F)(F)F)O[C@H]1CN(c2cc(-c3c[nH]c(=O)[nH]c3=O)nn3ccnc23)CC1(F)F` [Example 545, (S)-1-(6-(2,4-dioxo-1,2,3,4-tetrahydropyrimidin-5-yl)imidazo[1,2-b]pyridazin-8-yl)-4,4-difluoropyrrolidin-3-yl (2,2,2-trifluoroethyl)carbamate], on CD73 [1], the IC50 was 0.4 nM. For the same compound, the concentration for a half-maximal effect (EC50) at CD73 [2] amounted to 0.22 nM.

At CD73 [1], `O=c1[nH]cc(-c2cc([C@H]3C[C@@H]3c3ccc(C(F)(F)F)cn3)c3ncc(F)n3n2)c(=O)[nH]1` [Example 144, 5-(3-fluoro-8-((1S,2S)-2-(5-(trifluoromethyl)pyridin-2-yl)cyclopropyl)imidazo[1,2-b]pyridazin-6-yl)pyrimidine-2,4(1H,3H)-dione] had an IC50 of 2.3 nM. The compound further came in with a 50% effective concentration (EC50) at CD73 [2] of 6.17 nM.

In the case of `O=c1[nH]cc(-c2cc([C@H]3C[C@@H]3c3cc(C(F)(F)F)c4ncccc4c3)c3nccn3n2)c(=O)[nH]1` (racemic) [Example 141, 5-(8-((1S,2S)-2-(8-(trifluoromethyl)quinolin-6-yl)cyclopropyl)imidazo[1,2-b]pyridazin-6-yl)pyrimidine-2,4(1H,3H)-dione and 5-(8-((1R,2R)-2-(8-(trifluoromethyl)quinolin-6-yl)cyclopropyl)imidazo[1,2-b]pyridazin-6-yl)pyrimidine-2,4(1H,3H)-dione], on CD73 [1], it took 2.1 nM to reach half-maximal inhibition (IC50). Also, the concentration for a half-maximal effect (EC50) at CD73 [2] amounted to 24.8 nM.

For `CC1(C)CN(c2cc(-c3c[nH]c(=O)[nH]c3=O)nc3c(F)cnn23)CC1(F)F` [Example 219, 5-(7-(3,3-difluoro-4,4-dimethylpyrrolidin-1-yl)-3-fluoropyrazolo[1,5-a]pyrimidin-5-yl)pyrimidine-2,4(1H,3H)-dione], at CD73 [1], the IC50 came to 8.26 nM. The 50% effective concentration (EC50) on CD73 [2] was determined as 62.6 nM.

With `O=c1[nH]cc(-c2cc(NCCc3ccc(Cl)cc3)c3nccn3n2)c(=O)[nH]1` [Example 497, 5-(8-((4-chlorophenethyl)amino)imidazo[1,2-b]pyridazin-6-yl)pyrimidine-2,4(1H,3H)-dione], it took 64.5 nM to reach half-maximal inhibition at CD73 [1] (IC50). Moreover, the EC50 on CD73 [2] amounted to 569 nM.

Take `O=C(NC12CC(C(F)(F)F)(C1)C2)O[C@H]1CN(c2cc(-c3c[nH]c(=O)[nH]c3=O)nn3c(F)cnc23)CC1(F)F` [Example 665, (S)-1-(6-(2,4-dioxo-1,2,3,4-tetrahydropyrimidin-5-yl)-3-fluoroimidazo[1,2-b]pyridazin-8-yl)-4,4-difluoropyrrolidin-3-yl (3-(trifluoromethyl)bicyclo[1.1.1]pentan-1-yl)carbamate]: on CD73 [1], inhibition was half-maximal at 1.46 nM (IC50). In addition, the EC50 on CD73 [2] was determined as 2.79 nM.

Compound `CC(COc1cc(-c2c[nH]c(=O)[nH]c2=O)nn2ccnc12)c1ccccc1` (centres unmarked) [Example 674, 5-(8-(2-phenylpropoxy)imidazo[1,2-b]pyridazin-6-yl)pyrimidine-2,4(1H,3H)-dione] returned an IC50 against CD73 [1] of 16.3 nM. The EC50 at CD73 [2] turned out to be 48.1 nM.

`C[C@@]1(F)CCN(c2cc(-c3c[nH]c(=O)[nH]c3=O)nn3ccnc23)C1` [Example 186, 5-[8-[(3R)-3-fluoro-3-methyl-pyrrolidin-1-yl]imidazo[1,2-b]pyridazin-6-yl]-1H-pyrimidine-2,4-dione] yielded an IC50 against CD73 [1] of 7.57 nM. At CD73 [2], the EC50 stood at 22.3 nM.

At CD73 [1], `O=c1[nH]cc(-c2cc(N3CC(F)(F)C4(CC4)C3)n3ncnc3n2)c(=O)[nH]1` [Example 357, 5-(7-(7,7-difluoro-5-azaspiro[2.4]heptan-5-yl)-[1,2,4]triazolo[1,5-a]pyrimidin-5-yl)pyrimidine-2,4(1H,3H)-dione] came in with an IC50 greater than 250 nM. The EC50 at CD73 [2] amounted to 402 nM.

`O=c1[nH]cc(-c2cc(OCC(F)(F)CO)c3nccn3n2)c(=O)[nH]1` [Example 687, 5-(8-(2,2-difluoro-3-hydroxypropoxy)imidazo[1,2-b]pyridazin-6-yl)pyrimidine-2,4(1H,3H)-dione] returned an IC50 at CD73 [1] of 8.72 nM. At CD73 [2], this compound registered a concentration for a half-maximal effect (EC50) of 53.5 nM.

The compound `CC(C)NC(=O)C(F)(F)C1CCN(c2cc(-c3c[nH]c(=O)[nH]c3=O)nn3ccnc23)C1` (centres unmarked) [Example 662, 2-(1-(6-(2,4-dioxo-1,2,3,4-tetrahydropyrimidin-5-yl)imidazo[1,2-b]pyridazin-8-yl)pyrrolidin-3-yl)-2,2-difluoro-N-isopropylacetamide] returned an IC50 at CD73 [1] of 19.2 nM. For the same compound, it took 88.6 nM to reach a half-maximal effect at CD73 [2] (EC50).

At CD73 [1], `O=c1[nH]cc(-c2cc([C@H]3C[C@@H]3c3ccc4nc(C(F)(F)F)n(CC(F)(F)F)c4c3)c3nccn3n2)c(=O)[nH]1` (racemic) [Example 603, 5-(8-((1S,2S)-2-(1-(2,2,2-trifluoroethyl)-2-(trifluoromethyl)-1H-benzo[d]imidazol-6-yl)cyclopropyl)imidazo[1,2-b]pyridazin-6-yl)pyrimidine-2,4(1H,3H)-dione] showed an IC50 of 1.94 nM. Besides, the midpoint of the response on CD73 [2], the EC50, lay at 0.09 nM.

Compound `O=C(Nc1ccc(F)cc1F)O[C@H]1CN(c2cc(-c3c[nH]c(=O)[nH]c3=O)nn3ccnc23)CC1(F)F` [Example 235, (S)-1-(6-(2,4-dioxo-1,2,3,4-tetrahydropyrimidin-5-yl)imidazo[1,2-b]pyridazin-8-yl)-4,4-difluoropyrrolidin-3-yl (2,4-difluorophenyl)carbamate] returned an IC50 against CD73 [1] of 0.96 nM. Also, on CD73 [2], the EC50 is 0.82 nM.

In the case of `Cc1nc2c(N3CC(C)(C)C(F)(F)C3)cc(-c3c[nH]c(=O)[nH]c3=O)nn2c1F` [Example 422, 5-(8-(3,3-difluoro-4,4-dimethylpyrrolidin-1-yl)-3-fluoro-2-methylimidazo[1,2-b]pyridazin-6-yl)pyrimidine-2,4(1H,3H)-dione], at CD73 [1], the IC50 came to 72.7 nM. This compound also displayed an EC50 on CD73 [2] of 155 nM.

At CD73 [1], `O=c1[nH]cc(-c2cc([C@H]3C[C@@H]3c3ncc(Cl)cc3F)c3nccn3n2)c(=O)[nH]1` [Example 586, 5-(8-((1S,2S)-2-(5-chloro-3-fluoropyridin-2-yl)cyclopropyl)imidazo[1,2-b]pyridazin-6-yl)pyrimidine-2,4(1H,3H)-dione] yielded an IC50 of 0.85 nM. Also, a half-maximal effect on CD73 [2] (EC50) was put at 2.94 nM.

`CC1(C)CN(c2cc(-c3c[nH]c(=O)[nH]c3=O)nc3nccn23)CC1(F)F` [Example 421, 5-(5-(3,3-difluoro-4,4-dimethylpyrrolidin-1-yl)imidazo[1,2-a]pyrimidin-7-yl)pyrimidine-2,4(1H,3H)-dione] displayed a concentration for half-maximal inhibition (IC50) at CD73 [1] of 31 nM. For the same compound, the EC50 on CD73 [2] came to 65.1 nM.

Compound `O=c1[nH]cc(-c2cc([C@H]3C[C@@H]3c3ccc(C(F)(F)F)nc3)c3nccn3n2)c(=O)[nH]1` [Example 153, 5-(8-((1S,2S)-2-(6-(trifluoromethyl)pyridin-3-yl)cyclopropyl)imidazo[1,2-b]pyridazin-6-yl)pyrimidine-2,4(1H,3H)-dione] registered an IC50 on CD73 [1] of 2.3 nM. Besides, on CD73 [2], a half-maximal effect (EC50) was put at 8.85 nM.

On CD73 [1], `O=c1[nH]cc(-c2cc(N3C[C@@H](F)[C@@H](F)C3)n3ncnc3n2)c(=O)[nH]1` [Example 472, 5-(7-((3R,4S)-3,4-difluoropyrrolidin-1-yl)-[1,2,4]triazolo[1,5-a]pyrimidin-5-yl)pyrimidine-2,4(1H,3H)-dione] displayed an IC50 of 15.6 nM. The EC50 at CD73 [2] is 58.6 nM.
